Our source for the EC50 values is US11110082B2, “Tyrosine kinase inhibitors” (Rigel Pharmaceuticals, Inc., priority 2016, dated 2021).

pEC50: −log10 of the molar value.

The target of the test is T1, MerTK (Homo sapiens, UniProt Q12866).
T1 construct: Seed HUVECs (10K cells/well) in EBM-2 complete media; host or cells: HUVEC (primary human umbilical vein endothelial cells)
T1 sequence (Q12866 21-999): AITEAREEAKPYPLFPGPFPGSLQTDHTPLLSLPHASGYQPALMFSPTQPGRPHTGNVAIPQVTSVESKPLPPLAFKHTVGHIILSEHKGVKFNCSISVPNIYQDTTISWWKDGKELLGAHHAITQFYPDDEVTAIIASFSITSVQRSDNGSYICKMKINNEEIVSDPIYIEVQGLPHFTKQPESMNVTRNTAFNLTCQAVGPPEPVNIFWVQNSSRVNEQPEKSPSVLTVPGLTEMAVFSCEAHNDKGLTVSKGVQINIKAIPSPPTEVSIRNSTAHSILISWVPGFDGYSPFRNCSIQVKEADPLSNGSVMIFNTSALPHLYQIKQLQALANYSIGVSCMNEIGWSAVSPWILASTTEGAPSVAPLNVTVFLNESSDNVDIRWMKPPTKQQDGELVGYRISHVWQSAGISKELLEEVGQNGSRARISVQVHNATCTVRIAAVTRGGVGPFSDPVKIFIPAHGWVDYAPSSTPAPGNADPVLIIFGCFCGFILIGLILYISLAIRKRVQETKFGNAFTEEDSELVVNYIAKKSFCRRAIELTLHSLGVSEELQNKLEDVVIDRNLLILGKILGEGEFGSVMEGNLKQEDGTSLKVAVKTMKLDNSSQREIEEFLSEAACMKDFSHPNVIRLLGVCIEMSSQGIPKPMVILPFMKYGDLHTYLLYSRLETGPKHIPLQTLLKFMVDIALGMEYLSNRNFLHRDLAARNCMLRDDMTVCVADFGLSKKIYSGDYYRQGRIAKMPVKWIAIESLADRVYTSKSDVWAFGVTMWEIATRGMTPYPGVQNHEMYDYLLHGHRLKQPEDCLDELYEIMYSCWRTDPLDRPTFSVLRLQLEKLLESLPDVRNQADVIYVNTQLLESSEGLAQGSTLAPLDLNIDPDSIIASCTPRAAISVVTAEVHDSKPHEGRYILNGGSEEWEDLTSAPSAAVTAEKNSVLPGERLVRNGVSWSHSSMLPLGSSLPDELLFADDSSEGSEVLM
Nature of the test: PAKT HTRF-HUVEC assay (pAkt Ser473 HTRF after anti-human MerTK-XL stimulation). The test is classed as cell-based. As to conditions: HUVEC cells, 1 hour compound, stimulated with anti-human MerTK-XL 1 ug/mL for 10 minutes, read-out: inhibition of MerTK. Summed up: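 Akt Ser473 phosphorylation measured by HTRF in lysates of serum-starved HUVECs. Cells received compound for 1 h at 37° C before a 10-min challenge with antibody-cross-linked anti-MerTK (1 ug/mL final); EC50 derived by curve fit.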

As to `O=c1c2cc(CN3CCN(CC(F)F)CC3)ccc2c2cnc(NCC3CC3)nc2n1[C@H]1CC[C@H](O)CC1` [Compound 153], the pEC50 is 7.29. With `O=c1c2cc(N3CCN4CCC[C@H]4C3)ccc2c2cnc(NCC3CC3)nc2n1[C@H]1CC[C@H](O)CC1` [Compound 102, trans-3-((Cyclopropylmethyl)amino)-8-((S)-hexahydropyrrolo[1,2-a]pyrazin-2(1H)-yl)-5-(4-hydroxycyclohexyl)pyrimido [4,5-c]isoquinolin-6(5H)-one], the pEC50 is 6.91. The figure for `O=c1c2cc(CN3CCC(N4CCCC4)CC3)ccc2c2cnc(NCC3CC3)nc2n1[C@H]1CC[C@H](O)CC1` [Compound 149] is 7.27; for `CC(C)N1CCN(c2ccc3c(c2)c(=O)n([C@H]2CC[C@H](O)CC2)c2nc(NCC4CC4)ncc32)CC1` [Compound 109, trans-3-((Cyclopropylmethyl)amino)-5-(4-hydroxycyclohexyl)-8-(4-isopropylpiperazin-1-yl)pyrimido[4,5-c]isoquinolin-6(5H)-one] it is 7.01; for `CCCCNc1ncc2c3ccc(N4CCN5CCC[C@H]5C4)cc3c(=O)n([C@H]3CC[C@H](O)CC3)c2n1` [Compound 73, trans-3-(Butylamino)-8-((S)-hexahydropyrrolo[1,2-a]pyrazin-2(1H)-yl)-5-((1r,4S)-4-hydroxycyclohexyl)pyrimido [4,5-c]isoquinolin-6(5H)-one] it is 7.68.

On to `CCCCNc1ncc2c3ccc(N4CCN5CCC4CC5)cc3c(=O)n(C3CCC(=O)CC3)c2n1` [Compound 82, 8-(1,4-Diazabicyclo[3.2.2]nonan-4-yl)-3-(butylamino)-5-(4-oxocyclohexyl)pyrimido[4,5-c]isoquinolin-6(5H)-one], for which the pEC50 was 6.66. In the case of `CCCCNc1ncc2c3ccc(CN4CCN(C)CC4)cc3c(=O)n([C@H]3CCC[C@H](O)CCC3)c2n1` [Compound 127, 3-(Butylamino)-5-((1r,5r)-5-hydroxycyclooctyl)-8-((4-methylpiperazin-1-yl)methyl)pyrimido[4,5-c]isoquinolin-6(5H)-one], the pEC50 is 7.05. In the case of `CCCCNc1ncc2c3ccc(CN4CCN(C)CC4)cc3c(=O)n([C@@H]3CC[C@@H](O)C3)c2n1` [Compound 235, 3-(butylamino)-5-((1R,3R)-3-hydroxycyclopentyl)-8-((4-methylpiperazin-1-yl)methyl)pyrimido[4,5-c]isoquinolin-6(5H)-one], the pEC50 was 6.58.

On to `CCCCNc1ncc2c3ccc(CN4CCN(C)CC4)cc3c(=O)n([C@H]3CC[C@H](C(N)=O)CC3)c2n1` [Compound 131, trans-4-(3-(Butylamino)-8-((4-methylpiperazin-1-yl)methyl)-6-oxopyrimido[4,5-c]isoquinolin-5(6H)-yl)cyclohexane-1-carboxamide], for which the pEC50 is 7.26. Regarding `O=c1c2cc(N3CCN4CCC3CC4)ccc2c2cnc(NCC3CC3)nc2n1C1CCC(O)CC1` (stereo not shown) [Compound 163], the pEC50 was 6.95.

On to `CN1CCN(Cc2ccc3c(c2)c(=O)n(C2CCC(C)(C)CC2)c2nc(NCC4CCC4)ncc32)CC1` [Compound 146], for which the pEC50 was 8.13. Under `CCCCNc1ncc2c3ccc(CN4CCN(C)CC4)cc3c(=O)n([C@H]3CC[C@H](C(=O)O)CC3)c2n1` [Compound 132, trans-4-(3-(Butylamino)-8-((4-methylpiperazin-1-yl)methyl)-6-oxopyrimido[4,5-c]isoquinolin-5(6H)-yl)cyclohexane-1-carboxylic Acid] stands 5.81; under `O=c1c2cc(N3CCN(CC(F)(F)F)CC3)ccc2c2cnc(NCC3CC3)nc2n1[C@H]1CC[C@H](O)CC1` [Compound 168], 6.54; under `N#CC1CCN(Cc2ccc3c(c2)c(=O)n([C@H]2CC[C@H](O)CC2)c2nc(NCC4CC4)ncc32)CC1` [Compound 204, trans-1-((3-((Cyclopropylmethyl)amino)-5-(4-hydroxycyclohexyl)-6-oxo-5,6-dihydropyrimido[4,5-c]isoquinolin-8-yl)methyl)piperidine-4-carbonitrile], 7.24. As for `O=c1c2cc(N3CCC(N4CCCC4)CC3)ccc2c2cnc(NCC3CC3)nc2n1[C@H]1CC[C@H](O)CC1` [Compound 158], the pEC50 was 7.02. In the case of `CN1CCN(Cc2ccc3c(c2)c(=O)n([C@H]2CC[C@H](O)CC2)c2nc(NC4CCC4)ncc32)CC1` [Compound 137, trans-3-(cyclobutylamino)-5-(4-hydroxycyclohexyl)-8-((4-methylpiperazin-1-yl)methyl)pyrimido[4,5-c]isoquinolin-6(5H)-one], the pEC50 was 7.71. The figure for `CC(C)(C)OC(=O)C1CCN(Cc2ccc3c(c2)c(=O)n([C@H]2CC[C@H](O)CC2)c2nc(NCC4CC4)ncc32)CC1` [Compound 201, trans-tert-Butyl 1-((3-((cyclopropylmethyl)amino)-5-(4-hydroxycyclohexyl)-6-oxo-5,6-dihydropyrimido[4,5-c]isoquinolin-8-yl)methyl)piperidine-4-carboxylate] is 7.14. Consider `O=c1c2cc(CN3CCC4(CC3)COC4)ccc2c2cnc(NC3CCC3)nc2n1[C@H]1CC[C@H](O)CC1` [Compound 209, trans-8-((2-Oxa-7-azaspiro[3.5]nonan-7-yl)methyl)-3-(cyclobutylamino)-5-(4-hydroxycyclohexyl)pyrimido[4,5-c]isoquinolin-6(5H)-one], for which the pEC50 is 7.86. Under `CN1CCN(Cc2ccc3c(c2)c(=O)n(C2CCN(C(=O)CC#N)CC2)c2nc(NCC4CC4)ncc32)CC1` [Compound 192] stands 5.39. As to `CC(C)Nc1ncc2c3ccc(Cl)cc3c(=O)n([C@H]3CC[C@H](O)CC3)c2n1` [Compound 193], the pEC50 was 6.02.

For the compound `CN1CCN(Cc2ccc3c(c2)c(=O)n(C2CCNCC2)c2nc(NCC4CC4)ncc32)CC1` [Compound 191], the pEC50 was 6.06.

For the compound `CCCCNc1ncc2c3ccc(CN4CCN(C)CC4)cc3c(=O)n([C@H]3CC[C@H](C#N)CC3)c2n1` [Compound 128], the pEC50 is 6.90. As to `CCC1(CNc2ncc3c4ccc(CN5CCOCC5)cc4c(=O)n([C@H]4CC[C@H](O)CC4)c3n2)CCC1` [Compound 19, trans-3-(((1-Ethylcyclobutyl)methyl)amino)-5-(4-hydroxycyclohexyl)-8-(morpholinomethyl)pyrimido [4,5-c]isoquinolin-6(5H)-one], the pEC50 was 6.16. Under `CC(C)(C)N1CCN(Cc2ccc3c(c2)c(=O)n([C@H]2CC[C@H](O)CC2)c2nc(NCC4CC4)ncc32)CC1` [Compound 60, trans-8-((4-(tert-butyl)piperazin-1-yl)methyl)-3-((cyclopropylmethyl)amino)-5-(4-hydroxycyclohexyl)pyrimido [4,5-c]isoquinolin-6(5H)-one] stands 8.38. The figure for `O=c1c2cc(CN3CCN(CC(F)F)CC3)ccc2c2cnc(NCC3CC3)nc2n1[C@H]1CC[C@H](O)CC1` [Compound 43, trans-3-((Cyclopropylmethyl)amino)-8-((4-(2,2-difluoroethyl)piperazin-1-yl)methyl)-5-(4-hydroxycyclohexyl)pyrimido[4,5-c]isoquinolin-6(5H)-one] is 7.29. Take `O=c1c2cc(CN3CCC4(CC3)COC4)ccc2c2cnc(NCC3CC3)nc2n1[C@H]1CC[C@H](O)CC1` [Compound 186, trans-8-((2-Oxa-7-azaspiro[3.5]nonan-7-yl)methyl)-3-((cyclopropylmethyl)amino)-5-(4-hydroxycyclohexyl)pyrimido[4,5-c]isoquinolin-6(5H)-one]: the pEC50 was 7.34. For the compound `O=c1c2cc(CN3CCN(c4ccncn4)CC3)ccc2c2cnc(NCC3CC3)nc2n1[C@H]1CC[C@H](O)CC1` [Compound 216, trans-3-((Cyclopropylmethyl)amino)-5-(4-hydroxycyclohexyl)-8-((4-(pyrimidin-4-yl)piperazin-1-yl)methyl)pyrimido[4,5-c]isoquinolin-6(5H)-one], the pEC50 is 7.65.

On to `C[C@]1(O)CC[C@H](n2c(=O)c3cc(CN4CCC(N5CCCC5)CC4)ccc3c3cnc(NCC4CC4)nc32)CC1` [Compound 38, trans-3-((Cyclopropylmethyl)amino)-5-(4-hydroxy-4-methylcyclohexyl)-8-((4-(pyrrolidin-1-yl)piperidin-1-yl)methyl)pyrimido[4,5-c]isoquinolin-6(5H)-one], for which the pEC50 was 7.48.
